Reference: patent US9994673B2, “Bisphenol polyether oligomers, methods of manufacture, and polycarbonates made therefrom” (SABIC GLOBAL TECHNOLOGIES B.V, priority 2013, dated 2018)
“Also recorded” adds a separate entry of the source.

How the values were obtained:
[1] = target: recombinant human estradiol receptor (rhER) beta 1 (Homo sapiens, UniProt Q92731); test: Competitive estradiol binding assay, displacement of [3H]estradiol, rhER beta 1; settings: up to highest concentration 2.5×E-4 M
[2] = target: T1, recombinant human estradiol receptor (rhER) alpha (Homo sapiens, UniProt P03372); test: Competitive estradiol binding assay, displacement of [3H]estradiol, rhER alpha; settings: up to highest concentration 2.5×E-4 M
T1 sequence (P03372 1-595): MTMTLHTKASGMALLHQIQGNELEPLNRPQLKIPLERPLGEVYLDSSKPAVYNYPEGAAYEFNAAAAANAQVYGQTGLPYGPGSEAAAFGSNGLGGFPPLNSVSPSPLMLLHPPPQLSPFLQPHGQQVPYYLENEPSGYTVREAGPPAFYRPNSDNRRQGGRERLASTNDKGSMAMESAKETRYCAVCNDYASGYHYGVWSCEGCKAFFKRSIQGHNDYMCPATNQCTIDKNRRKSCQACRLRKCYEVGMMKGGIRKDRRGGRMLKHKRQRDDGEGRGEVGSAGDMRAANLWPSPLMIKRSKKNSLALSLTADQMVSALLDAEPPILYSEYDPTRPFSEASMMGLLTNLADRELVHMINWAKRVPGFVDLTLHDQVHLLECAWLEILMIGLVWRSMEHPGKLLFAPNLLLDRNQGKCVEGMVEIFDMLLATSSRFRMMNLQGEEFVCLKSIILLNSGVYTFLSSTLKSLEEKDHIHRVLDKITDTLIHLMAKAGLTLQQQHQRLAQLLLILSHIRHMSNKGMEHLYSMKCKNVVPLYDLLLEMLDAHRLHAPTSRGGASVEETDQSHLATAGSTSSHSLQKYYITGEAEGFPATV

SMILES	Binding to rhER beta (in words) ([1]; listed as BPA)	Binding to rhER alpha (in words) ([2]; listed as BPA)	Binding to rhER beta (in words) [1]	Binding to rhER alpha (in words) [2]
CC(C)(c1ccc(O)cc1)c1ccc(O)cc1 [Control B, Bisphenol A]	bind to both receptors; also recorded: very low level of binding	bind to both receptors; also recorded: very low level of binding		
CC(C)(c1ccc(O)cc1)c1ccc(OCc2ccc(COc3ccc(C(C)(C)c4ccc(O)cc4)cc3)cc2)cc1 [BPA-X-1, 4,4′-[1,4-Phenylenebis(methyleneoxy-4,1-phenylene(1-methylethylidene))]bisphenol]			no detectable binding	no detectable binding
CC(C)(c1ccccc1)c1ccc(O)cc1 [Control C, p-Cumyl Phenol]			very low level of binding	very low level of binding
